Test results as given in patent publication US8198274B2, “Substituted indolyl and indazolyl derivatives and uses thereof” (Roche Palo Alto LLC, priority 2008, dated 2012).

Key:
[1] = target: T1, human norepinephrine transporter (hNET) (Homo sapiens, UniProt P23975); test: Screening for compounds active at human norepinephrine transporter (hNET), scintillation proximity assay, competition with [3H]-Nisoxetine; type: binding; conditions: membranes of HEK-293 cells, SPA
T1 construct: expressed in transfected cells
T1 sequence (P23975 whole entry): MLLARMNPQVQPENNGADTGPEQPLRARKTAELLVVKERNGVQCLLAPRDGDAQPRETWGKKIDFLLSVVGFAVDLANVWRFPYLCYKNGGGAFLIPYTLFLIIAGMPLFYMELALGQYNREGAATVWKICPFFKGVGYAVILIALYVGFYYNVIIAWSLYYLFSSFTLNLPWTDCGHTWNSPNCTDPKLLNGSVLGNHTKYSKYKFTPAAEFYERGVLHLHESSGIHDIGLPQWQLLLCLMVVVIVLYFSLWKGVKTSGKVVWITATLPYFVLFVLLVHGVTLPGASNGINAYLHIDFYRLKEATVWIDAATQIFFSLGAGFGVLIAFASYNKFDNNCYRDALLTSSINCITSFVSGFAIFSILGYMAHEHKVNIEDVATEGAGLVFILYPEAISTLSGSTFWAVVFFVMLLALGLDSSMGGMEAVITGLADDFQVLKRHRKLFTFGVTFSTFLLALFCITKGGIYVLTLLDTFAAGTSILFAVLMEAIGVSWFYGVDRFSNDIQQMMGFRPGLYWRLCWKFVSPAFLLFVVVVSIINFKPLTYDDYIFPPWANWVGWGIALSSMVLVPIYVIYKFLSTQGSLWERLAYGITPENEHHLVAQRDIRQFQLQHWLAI
Method: This assay was used to determine the affinity of ligands for the hNET transporter by competition with [^3H]-Nisoxetine. As in the hSERT assay of the above example, receptor-containing membranes were pre-coupled to the SPA beads and the binding of the appropriate radioligand to the transporter was measured. The light emission was proportional to the amount of bound radioligand, with unbound radioligand producing no signal.
HEK-293 cells (Tatsumi et al., Eur. J. Pharmacol. 1997, 30, 249-258) stably expressing recombinant hNET (Clone: HEK-hNET #2) were maintained with media (DMEM hi glucose with 10% FBS, 300 μg/ml G418 and 2 mM L-Glutamine) and incubated at 37° C. with 5% CO2. Cells were released from culture flasks using PBS for 1-2 minutes. […]
Cell membranes were prepared using a membrane preparation buffer of 50 mM TRIS (pH 7.4). […] After a second centrifugation, the pellet was re-homogenized and brought to a final volume determined during the assay. […]
^3[H] […] The mixtures were allowed to stand at room temperature for one hour, and were then counted on a Packard TopCount LCS, a generic SPA counting protocol settings (Energy Range: Low, Efficiency Mode: Normal, Region A: 1.50-35.00, Region B: 1.50-256.00, Count Time (min.): 0.40, Background Subtract: none, Half-Life Correction: no, Quench Indicator: tSIS, Platemap blank subtraction: No, Cross talk reduction: Off). […]

[2] = target: T2, human dopamine transporter (hDAT) (Homo sapiens, UniProt Q01959); test: Screening for compounds active at human dopamine transporter (hDAT), scintillation proximity assay, competition with [3H]-Vanoxerine; type: binding; conditions: HEK-293 cells, SPA
T2 construct: expressed in transfected cells
T2 sequence (Q01959 whole entry): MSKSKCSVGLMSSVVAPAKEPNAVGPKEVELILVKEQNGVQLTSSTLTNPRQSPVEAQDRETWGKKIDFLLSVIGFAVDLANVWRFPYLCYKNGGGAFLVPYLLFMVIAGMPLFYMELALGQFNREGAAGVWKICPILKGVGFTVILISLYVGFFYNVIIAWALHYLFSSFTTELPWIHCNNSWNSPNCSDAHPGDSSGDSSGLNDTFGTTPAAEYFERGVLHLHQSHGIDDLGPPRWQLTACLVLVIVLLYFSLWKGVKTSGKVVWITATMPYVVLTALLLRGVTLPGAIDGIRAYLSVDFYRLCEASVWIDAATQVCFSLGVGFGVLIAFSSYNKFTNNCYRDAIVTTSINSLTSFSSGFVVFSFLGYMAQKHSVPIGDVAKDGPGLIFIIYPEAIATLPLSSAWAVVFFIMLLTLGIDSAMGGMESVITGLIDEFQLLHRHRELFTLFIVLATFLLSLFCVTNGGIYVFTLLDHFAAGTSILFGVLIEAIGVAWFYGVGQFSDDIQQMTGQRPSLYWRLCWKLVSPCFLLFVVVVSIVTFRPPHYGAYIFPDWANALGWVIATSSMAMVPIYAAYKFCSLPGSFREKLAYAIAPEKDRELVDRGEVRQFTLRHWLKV
Method: This assay was used to determine the affinity of ligands for the dopamine transporter by competition with [^3H]-Vanoxerine.
HEK-293 cells (Tatsumi et al., Eur. J. Pharmacol. 1997, 30, 249-258) stably expressing recombinant hDAT were maintained with media (DMEM hi glucose with 10% FBS, 300 μg/ml G418 and 2 mM L-Glutamine) and incubated at 37° C. with 5% CO2. Cells were plated four hours prior to experiment by placing approximately 30,000 cells per well (in PBS) on white, opaque Cell-Tak coated 96 well plates. Extra buffer was apriated from the cell plates using an ELx405 plate washer.
^3[H] vanoxerine (GBR 12909) radioligand, specific activity approximately 59 Ci/mmol, stock concentration, 400 nM, and 50 mM Tris-HCl, 300 mM NaCl, (pH 7.4) buffers were used for Scintillation Proximity Assay IC50/Ki determination. […]
The % inhibition was calculated for each compound tested [(Compound CPM at maximum concentration-Non-Specific CPM)/Total CPM*100]. […]
[formula] where max=total binding, min=non specific binding, x=concentration (M) of the tested compound and n=Hill slope. The inhibition dissociation constant (Ki) of each compound was determined according to the method of Cheng-Prusoff and then converted into negative logarithm (pKi) of the Ki.

Ki [1]: ~3.98 nM
Ki [2]: ~5.01 nM
SMILES: CNCc1ccccc1Cc1ccc2[nH]c(C(N)=O)cc2c1 [Compound 40, 5-(2-Methylaminomethyl-benzyl)-1H-indole-2-carboxylic acid amide]
